The values that follow come from PMC10809502, “Application of a new MDCKII-MDR1 cell model to measure the extent of drug distribution in vitro at equilibrium for prediction of in vivo unbound brain-to-plasma drug distribution” (Fluids and Barriers of the CNS, 2024).

A word on the fraction unbound: it is the share of the substance not bound to proteins or other matrix. A higher fraction unbound goes with much free substance. As a reminder, the Papp B→A is the apparent permeability from the basolateral to the apical side of a cell layer. The term efflux ratio denotes a quotient of directional permeabilities that is used to spot active efflux.

The structures appear in SMILES notation.

Data set [1] concerns the target T1, Bovine Serum Albumin (BSA) (Bos taurus, UniProt P02769). The following applies: isolated protein.
The next data set in a line: in vitro. The following applies: Göttingen, minipig, brain homogenate, pH 7.4.
Data set [2] deals with P-gp (human MDR1). The data set can be described thus: in vitro. The conditions noted are these: dog, MDCK-MDR1, pH 7.4.
Data set [3] has as its system P-gp (human MDR1). The data set can be described thus: in vitro. The conditions noted are these: dog.
The conditions of data set [4]: brain homogenate.
Data set [5] deals with T1, Bovine Serum Albumin (BSA). The experiment in a line: in vitro. The following applies: isolated protein.
The test system of the next data set is MDCKII-MDR1 cells. The following applies: dog, 29 h, 1 μM, pH 7.5.
The conditions of data set [6]: minipig, in vivo; cited from earlier work.

T1 sequence (P02769 25-607): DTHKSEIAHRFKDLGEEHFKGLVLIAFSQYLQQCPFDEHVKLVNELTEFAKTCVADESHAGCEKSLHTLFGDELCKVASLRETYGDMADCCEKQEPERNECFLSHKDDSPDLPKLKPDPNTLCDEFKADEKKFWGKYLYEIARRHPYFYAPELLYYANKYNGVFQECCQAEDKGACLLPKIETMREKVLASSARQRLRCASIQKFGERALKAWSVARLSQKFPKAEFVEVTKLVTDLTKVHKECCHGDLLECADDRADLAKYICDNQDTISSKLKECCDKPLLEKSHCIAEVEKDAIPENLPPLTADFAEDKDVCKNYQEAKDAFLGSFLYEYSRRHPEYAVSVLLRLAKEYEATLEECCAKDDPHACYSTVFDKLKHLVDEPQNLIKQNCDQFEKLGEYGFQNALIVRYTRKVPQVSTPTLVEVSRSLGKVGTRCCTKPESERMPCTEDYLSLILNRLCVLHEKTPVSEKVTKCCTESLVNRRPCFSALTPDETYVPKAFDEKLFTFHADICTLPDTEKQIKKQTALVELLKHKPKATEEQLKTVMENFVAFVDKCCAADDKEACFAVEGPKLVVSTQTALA

For the compound `Cc1cc(=O)n(-c2ccccc2)n1C` [Antipyrine, antipyrine], the “Predicted fu (%) BSA 35 μM (D = 20)” value in data set [1] is 99.9%. The results for the fraction unbound at 5 h, 1 μM (in the data set “in vitro”; in data set [5]) were 0.843 ± 0.042 and over 1, respectively. The Papp B→A at 60 min, 0.5 μM with P-gp (human MDR1) [2] is 48 ± 3 ×10⁻⁶ cm/s. Further, the efflux ratio at 60 min, 0.5 μM in the data set on P-gp (human MDR1) [2] amounted to 1.2. The Kp at 29 h, 1 μM was 1.2 in the data set on P-gp (human MDR1) [3] (MDCK-MDR1, pH 7.5, in vitro determined Kp,brain Bi-L) and 1.2 with P-gp (human MDR1) [3] (MDCK-MDR1, pH 7.5, in vitro determined Kp,brain Uni-L). Further, the recovery at 29 h, 1 μM is 77% with P-gp (human MDR1) [3] (pH 7.5, Recovery Bi-L) and 77% in the data set with P-gp (human MDR1) [3] (pH 7.5, Recovery Uni-L). Also, the “Predicted fu (%) Brain (D = 20)” value in data set [4] is reported as over 100%. Moreover, the “Kp,uu,brain in Vitro Uni-L (Det. fu)” value in the data set on MDCKII-MDR1 cells is 1.05. In the data set on MDCKII-MDR1 cells, the “Kp,uu,brain in Vitro Uni-L (Pre.fu)” value came out at 1.24. Besides, in data set [6], the “Kp,uu,brain in vivo” value is 0.80.
